Among the data in ChEMBL document CHEMBL1138451, “Significance of interactions of BACE1-Arg235 with its ligands and design of BACE1 inhibitors with P2 pyridine scaffold” (Bioorg Med Chem Lett, 2009) are inhibition and IC50 values, retold here.

SMILES strings stand for the structures.

The target in assay [1] is T1, Beta-secretase 1 (Homo sapiens, UniProt P56817). Put plainly: Inhibition of human recombinant Arg235 region of BACE1 at 2 uM by FRET assay.
Assay [2] has as its target T1, Beta-secretase 1. In words: Inhibition of human recombinant Arg235 region of BACE1 at 0.2 uM by FRET assay.
In assay [3] the target is T1, Beta-secretase 1. Put plainly: Inhibition of human recombinant Arg235 region of BACE1 by FRET assay.

A word on the inhibition: it is the drop in the measured response relative to a control, in per cent. For orientation: IC50 means the concentration that gives 50% inhibition.

T1 sequence (P56817 whole entry): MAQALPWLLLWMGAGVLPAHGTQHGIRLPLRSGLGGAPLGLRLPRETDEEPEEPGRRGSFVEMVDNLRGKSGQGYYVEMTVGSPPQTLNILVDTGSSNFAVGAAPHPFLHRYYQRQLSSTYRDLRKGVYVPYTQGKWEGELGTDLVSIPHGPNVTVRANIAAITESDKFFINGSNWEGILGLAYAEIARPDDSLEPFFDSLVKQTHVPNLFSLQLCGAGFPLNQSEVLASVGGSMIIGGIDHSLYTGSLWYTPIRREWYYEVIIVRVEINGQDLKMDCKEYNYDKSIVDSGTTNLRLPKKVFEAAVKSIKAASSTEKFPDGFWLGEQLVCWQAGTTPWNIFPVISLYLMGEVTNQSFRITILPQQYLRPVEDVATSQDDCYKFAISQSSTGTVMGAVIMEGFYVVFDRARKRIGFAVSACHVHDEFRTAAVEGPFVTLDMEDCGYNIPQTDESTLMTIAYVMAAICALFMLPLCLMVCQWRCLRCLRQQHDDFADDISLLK

As for `O=C(N[C@@H](Cc1ccccc1)[C@H](O)C(=O)Nc1cccc(-c2nn[nH]n2)c1)c1cc(I)cc(C(=O)N2COC[C@@H]2c2ccccc2)n1`, the inhibition on Beta-secretase 1 [1] came to 99%; on Beta-secretase 1 [2], 86%. The IC50 on Beta-secretase 1 [3] was found to be 0.024 µM. `O=C(N[C@@H](Cc1ccccc1)[C@H](O)C(=O)Nc1cccc(-c2nn[nH]n2)c1)c1cc(Br)cc(C(=O)N2COC[C@@H]2c2ccccc2)n1`: the inhibition came out at 99% at Beta-secretase 1 [1] and 88% at Beta-secretase 1 [2]. Turning to `O=C(N[C@@H](Cc1ccccc1)[C@H](O)C(=O)Nc1cccc(-c2nn[nH]n2)c1)c1cc(I)cc(C(=O)N2COC[C@@H]2c2ccc(F)cc2)n1`, the results for the inhibition at Beta-secretase 1 [1] and on Beta-secretase 1 [2] were 99% and 92%, respectively. In the case of `O=C(N[C@@H](Cc1ccccc1)[C@H](O)C(=O)Nc1cccc(-c2nn[nH]n2)c1)c1cc(Cl)cc(C(=O)N2COC[C@@H]2c2ccccc2)n1`, the inhibition turned out to be 98% on Beta-secretase 1 [1] and 87% on Beta-secretase 1 [2]. On to `O=C(N[C@@H](Cc1ccccc1)[C@H](O)C(=O)Nc1cccc(-c2nn[nH]n2)c1)c1cc(Br)cc(C(=O)N2COC[C@@H]2c2ccc(F)cc2)n1`, for which the inhibition on Beta-secretase 1 [1] amounted to 99%; on Beta-secretase 1 [2] it was 93%. `O=C(N[C@@H](Cc1ccccc1)[C@H](O)C(=O)Nc1cccc(-c2nn[nH]n2)c1)c1cccc(C(=O)N2COC[C@@H]2c2ccccc2)n1`: the inhibition at Beta-secretase 1 [1] turned out to be 89%. Consider `O=C(N[C@@H](Cc1ccccc1)[C@H](O)C(=O)Nc1cccc(-c2nnn[nH]2)c1)c1cc(I)cc(C(=O)N2COC[C@@H]2c2ccc(F)cc2)n1`, for which the IC50 on Beta-secretase 1 [3] was 0.01 µM. On the same count and under the same terms, to `O=C(N[C@@H](Cc1ccccc1)[C@H](O)C(=O)Nc1cccc(-c2nnn[nH]2)c1)c1cc(Br)cc(C(=O)N2COC[C@@H]2c2ccc(F)cc2)n1` belongs 0.009 µM; to `O=C(N[C@@H](Cc1ccccc1)[C@H](O)C(=O)Nc1cccc(-c2nnn[nH]2)c1)c1cc(Cl)cc(C(=O)N2COC[C@@H]2c2ccccc2)n1`, 0.022 µM; to `O=C(N[C@@H](Cc1ccccc1)[C@H](O)C(=O)Nc1cccc(-c2nnn[nH]2)c1)c1cc(Br)cc(C(=O)N2COC[C@@H]2c2ccccc2)n1`, 0.015 µM. Take `O=C(N[C@@H](Cc1ccccc1)[C@H](O)C(=O)Nc1cccc(-c2nn[nH]n2)c1)c1cc(Cl)cc(C(=O)N2COC[C@@H]2c2ccc(F)cc2)n1`: the inhibition on Beta-secretase 1 [1] was determined as 99%; at Beta-secretase 1 [2] it was 91%. At Beta-secretase 1 [3], the concentration for half-maximal inhibition (IC50) worked out at 0.013 µM.
